“And” between values parts separate entries of the source, which are not always exact repeats. Equal values may be shown once.
Columns and labels:
[1] = tested on: T. brucei BSF; assay: Antitrypanosomal activity, alamarBlue assay; assay type: cell-based, Trypanosoma brucei; settings: for Selectivity Index (SI) T. brucei: SI = IC50 MRC-5/IC50 parasite; for IC50: bloodstream form, 72 h incubation, alamarBlue, error reported as σ; for antitrypanosomal activity (in words): classification used for docking analysis
Description: The in vitro antitrypanosomal and antileishmanial activity of the BODIPY derivatives were evaluated on the bloodstream form (BSF) of T. brucei and the promastigote form of L. major parasites. The toxicity of the compounds was determined after 72 h of incubation using the alamarBlue assay (for T. brucei) and the MTT assay (for L. major). The cytotoxicity of the compounds on a healthy human cell line (human lung fibroblast, MRC-5) was also determined after 72 h of incubation using the alamarBlue assay. The data were expressed as the half maximal inhibitory concentration (IC50). The selectivity index (SI) of each derivative was calculated by dividing the IC50 of MRC-5 cells into the IC50 of T. brucei or L. major.
T. brucei (Lister 427, antigenic type MiTat 1.2, clone 221a, bloodstream forms, “single marker” S427 (S16)) were cultured at 37 °C, 5% CO2 in HMI-9 medium supplemented with 10% heat-inactivated fetal bovine serum (hiFBS, Invitrogen, Carlsbad, CA, USA), as previously described.
The antitrypanosomal activity of the BODIPY derivatives was determined by the alamarBlue® assay (ThermoFisher Scientific, Waltham, MA, USA). The stock solutions of the compounds were prepared in DMSO and the final DMSO percentage in each well was adjusted to be less than 1%. A total of 2 × 10^4 parasites per mL were incubated at 37 °C, 5% CO2 in 96-well plates (50 μL/well) alone or in the presence of an increasing concentration of compounds for 72 h. A total of 20 μL of resazurin solution (110 ng/mL) was then added to each well, and the parasites were incubated for 4 h at 37 °C. Finally, cells were lysed with 50 μL per well of SDS 3%. The plate was incubated at 37 °C for an extra hour and then, fluorescence intensity was measured with an Infinite F200 plate reader (Tecan Austria, GmbH, Grödig, Austria), exciting at 550 nm and recording the emission at 590 nm. The results are expressed as the concentration of a compound that reduces cell growth by 50% versus untreated control cells (IC50). Data are presented as the average of at least three independent measurements, all conducted in triplicate conditions.

[2] = tested on: L. major promastigotes; assay: Antileishmanial activity, MTT-based assay; assay type: cell-based, Leishmania major; settings: for IC50: promastigotes, 72 h incubation, MTT, error reported as σ; for Selectivity Index (SI) L. major: SI = IC50 MRC-5/IC50 parasite; for antileishmanial activity (in words): classification used for docking analysis
Description: The in vitro antitrypanosomal and antileishmanial activity of the BODIPY derivatives were evaluated on the bloodstream form (BSF) of T. brucei and the promastigote form of L. major parasites. The toxicity of the compounds was determined after 72 h of incubation using the alamarBlue assay (for T. brucei) and the MTT assay (for L. major). The cytotoxicity of the compounds on a healthy human cell line (human lung fibroblast, MRC-5) was also determined after 72 h of incubation using the alamarBlue assay. The data were expressed as the half maximal inhibitory concentration (IC50). The selectivity index (SI) of each derivative was calculated by dividing the IC50 of MRC-5 cells into the IC50 of T. brucei or L. major. L. major (MHOM/IL/80/Friedlin) promastigotes were cultured at 28 °C, 5% CO2 in modified RPMI-1640 medium (Invitrogen, Carlsbad, CA, USA) supplemented with 10% hiFBS [49]. Parasites were maintained in culture in their […] growth phase (below 2 million parasites per mL for T. brucei and 10 million parasites per mL for L. major). The antileishmanial activity of the BODIPY derivatives was assessed using an MTT-based assay (Sigma-Aldrich, St. Louis, MO, USA). The stock solutions of the compounds were prepared in DMSO and the final DMSO percentage in each well was adjusted to be less than 1%. A total of 4 × 10^6 parasites per mL were incubated at 28 °C in 96-well plates (50 μL/well) alone or in the presence of an increasing concentration of compounds DMSO for 72 h. A total of 10 μL of MTT (5 mg/mL) were added to each well and parasites were incubated for 4 h at 28 °C. Finally, cells were lysed with 50 μL/well of 20% SDS. The plate was incubated at 37 °C for an extra hour and then, absorbance was measured at the Infinite F200 plate reader (TECAN Austria, GmbH, Grödig, Austria) at a wavelength of 540 nm. The IC50 was calculated as described above. Data are presented as the average of at least three independent measurements, all conducted in triplicate conditions.

[3] = tested on: MRC-5 cell line (human lung fibroblast); assay: Cytotoxicity, alamarBlue assay; assay type: cell-based; settings: 72 h incubation, error reported as σ
Description: The in vitro antitrypanosomal and antileishmanial activity of the BODIPY derivatives were evaluated on the bloodstream form (BSF) of T. brucei and the promastigote form of L. major parasites. The toxicity of the compounds was determined after 72 h of incubation using the alamarBlue assay (for T. brucei) and the MTT assay (for L. major). The cytotoxicity of the compounds on a healthy human cell line (human lung fibroblast, MRC-5) was also determined after 72 h of incubation using the alamarBlue assay. The data were expressed as the half maximal inhibitory concentration (IC50). The selectivity index (SI) of each derivative was calculated by dividing the IC50 of MRC-5 cells into the IC50 of T. brucei or L. major. MRC-5 cell line (human lung fibroblast) was grown in a monolayer at 37 °C, 5% CO2 in DMEM medium (1 g/L glucose) supplemented with 10% hiFBS, 100 U/mL penicillin, […] and 2 mM L-glutamine. Cytotoxicity was measured in MRC-5 through alamarBlue® assay (ThermoFisher Scientific). The stock solutions of the compounds were prepared in DMSO and the final DMSO percentage in each well was adjusted to be less than 1%. A total of 5 × 10^3 cells per mL were seeded in 96-well plates (100 μL/well) with 24 h of incubation time before compound addition at 37 °C, 5% CO2. Then, the compounds were added at increasing concentrations (from 0 to 100 μM) and the plates were incubated for 72 h. A total of 20 μL of resazurin solution (110 ng/mL) was added to each well and cells were incubated for 4 h. Then, cells were lysed with 50 μL/well of 3% SDS. The plate was incubated at 37 °C for an extra hour and then, the fluorescence intensity was measured at the Infinite F200 plate reader (TECAN Austria, GmbH), exciting at 550 nm and recording the emission at 590 nm. The results are expressed as the concentration of a compound that reduces cell growth by 50% versus untreated control cells (IC50). Data are presented as the average of at least three independent measurements, all conducted in triplicate conditions.

[4] = MRC5, healthy human lung fibroblasts

SMILES	Selectivity Index (SI) T. brucei [1]	IC50 [1]	antitrypanosomal activity (in words) [1]	IC50 [2]	IC50 ([3]; healthy human lung fibroblasts)	Selectivity Index (SI) L. major [2]	antileishmanial activity (in words) [2]	IC50 ([1]; Trypanosoma brucei)	IC50 ([2]; Leishmania major)	IC50 [3, 4]
CC1=C(c2nc3ccccc3[nH]2)C(C)=[N+]2C1=C(c1ccccc1)c1c(C)cc(C)n1[B-]2(F)F [Compound 3a]	11.38	5.5 ± 0.21 µM	present antitrypanosomal activity	> 100 µM	63 µM and 62.6 µM					
CC1=C(C=O)C(C)=[N+]2C1=C(c1cccs1)c1c(C)cc(C)n1[B-]2(F)F [Compound 2f]	6.54	12.4 ± 4.02 µM	present antitrypanosomal activity	19.7 ± 3.21 µM	80.9 ± 1.06 µM	4.10	does not present antileishmanial activity			
CC1=C(C=O)C(C)=[N+]2C1=C(c1c3ccccc3cc3ccccc13)c1c(C)c(C=O)c(C)n1[B-]2(F)F [Compound 3c]	1.53		present antitrypanosomal activity			6.91	present antileishmanial activity	14.2 ± 0.31 µM	3.13 ± 0.13 µM	21.7 ± 3.46 µM
CC1=CC(C)=[N+]2C1=C(c1cc3sccc3s1)c1c(C)cc(C)n1[B-]2(F)F [Compound 1i]	1.58	61.5 ± 10.9 µM		92.2 ± 10 µM	96.8 ± 4.5 µM	1.05				
CC1=C(C=O)C(C)=[N+]2C1=C(c1ccccc1)c1c(C)cc(C)n1[B-]2(F)F [Compound 2a]	1.22	74.7 ± 6.93 µM		> 100 µM	91.33 ± 0.66 µM	<0.91				
CC1=CC(C)=[N+]2C1=C(c1ccc3ccccc3n1)c1c(C)cc(C)n1[B-]2(F)F [Compound 1h]	1.24	77.4 ± 3.46 µM		> 100 µM	95.6 ± 3.45 µM	<0.96				
CCn1c2ccccc2c2cc(C3=C4C(C)=C(C=O)C(C)=[N+]4[B-](F)(F)n4c(C)cc(C)c43)ccc21 [Compound 2e]	5.89	15.2 ± 0.86 µM		20.7 ± 1.79 µM	89.7 ± 9.08 µM	4.33				
CC1=CC(C)=[N+]2C1=C(c1c3ccccc3cc3ccccc13)c1c(C)cc(C)n1[B-]2(F)F [Compound 1c]	1.07	77.1 ± 2.98 µM		5.41 ± 0.43 µM	82.14 ± 0.03 µM	18	present antileishmanial activity			
CC1=C(C=O)C(C)=[N+]2C1=C(c1ccc(N(c3ccccc3)c3ccc(C=O)cc3)cc1)c1c(C)cc(C)n1[B-]2(F)F [Compound 3d]	2.28					<0.87		38.3 ± 0.93 µM	> 100 µM	87.1 ± 3.28 µM
CC1=CC(C)=[N+]2C1=C(c1cccs1)c1c(C)cc(C)n1[B-]2(F)F [Compound 1f]	1.57	36.9 ± 7.43 µM		64.5 ± 8.43 µM	58 ± 4.76 µM	0.90				
CC1=CC(C)=[N+]2C1=C(c1ccccc1)c1c(C)cc(C)n1[B-]2(F)F [Compound 1a]	1.76	38.2 ± 7.29 µM		19.7 ± 3.94 µM	67.2 ± 4.39 µM	3.42				
CC1=CC(C)=[N+]2C1=C(c1ccc(N(c3ccccc3)c3ccccc3)cc1)c1c(C)cc(C)n1[B-]2(F)F [Compound 1d]	1.87	48.8 ± 3.29 µM		> 100 µM	91.3 ± 6.31 µM	<0.91				
CC1=CC(C)=[N+]2C1=C(c1ccc(N(C)C)c3ccccc13)c1c(C)c(C=O)c(C)n1[B-]2(F)F [Compound 2b]	24 and 24.34	2.84 ± 0.04 µM	present antitrypanosomal activity	15.8 ± 1.31 µM	69.1 ± 4.9 µM	4.39	present antileishmanial activity			
CC1=C(C=O)C(C)=[N+]2C1=C(c1ccc(N(c3ccccc3)c3ccccc3)cc1)c1c(C)cc(C)n1[B-]2(F)F [Compound 2d]	3.56	22.7 ± 1.88 µM		> 100 µM	81.1 ± 3.9 µM	<0.81				
